pIC50: −log10 of the molar value. Like-named read-outs stand apart in the source and are kept apart here.
How the values were obtained:
E-selectin-Ig = settings: cited from earlier work
[1] = biological target: T1, P-selectin-IgG fusion protein (Homo sapiens, UniProt P16109); experiment: Inhibition of HL60 cell adhesion to recombinant P-selectin-IgG fusion protein; assay type: cell-based; settings: for pIC50: concentration to block adhesion of 50% of HL60 cells compared with negative control
T1 construct: the lectin-like domain, the EGF repeat domain and six (E-selectin) and two (P-selectin) of the complement regulatory-like domains; made in house; host or cells: COS cells (DEAE/dextran plasmid transfection; culture supernatant; genetic constructs from B. Seed, Massachusetts General Hospital)
Description: (§1) These recombinant proteins contain the signal sequence, the lectin-like domain, the EGF (epidermal growth factor) repeat domain and six (E-selectin) and two (P-selectin) of the CR-like (complement regulatory) domains. […] Adhesion of labelled HL60 tumor cells was quantitatively measured in a cytofluoro-meter. The specific cell binding in the presence of inhibitors (I) was calculated compared with nonspecific binding to the CD4-IgG fusion protein. […] Genetic constructs for expression of extracellular portions of the human selectins E and P, joined to human immunoglobulin heavy chain hinge, CH2 and CH3 regions were obtained from B. Seed, Massachusetts General Hospital, Boston, U.S.A. […] CD4-IgG served as a negative control. Recombinant proteins were expressed as soluble proteins after DEAE/dextran facilitated plasmid DNA trans-fection into COS cells according to standard procedures. […] After washing with PBS, plates were blocked for 0.5 h with 150 μl/well of 1% BSA in PBS. […] After one PBS wash, 40 μl/well binding buffer (50 mM Hepes, pH 7.5, 100 mM NaCl, 100 μM MgCl2. 100 μM MnCl2, 100 μM CaCl2, 1 mg/ml BSA) were added together with test compounds or antibodies (see below). Parallel to the preparation of the plates, HL60 cells, grown in DMEM medium with 20% FCS, were washed two times with PBS before incubation for 20 min in Fc-receptor blocking buffer at RT. […] The amount of bound cells was quantitated in a cytofluorometer (CytoFluor 2300, Millipore, Bedford, U.S.A.). Specific cell binding was calculated by subtraction of the signals in wells coated with CD4-IgG (nonspecific binding) from the signals in wells coated with selectin-IgG. […] IC50 values were determined according to the four parameter logistics model. Each IC50 determination was repeated on another day at least once.

[2] = tested on: E-selectin-IgG fusion protein; experiment: Inhibition of HL60 cell adhesion to recombinant E-selectin-IgG fusion protein; assay type: cell-based, human
Description: as §1

E- and P-selectins = experiment: Selectin cell adhesion assays, E- and P-selectin taken together (statements in words); assay type: cell-based, human; settings: removal of the acetamido or acetyl group, compared with II-1
From the text: Primary assays for investigation of the action of compounds (I) on cell adhesion to recombinant soluble selectin fusion proteins:
The preparation of soluble E- and P-selectin-IgG fusion proteins, composed of the extracellular portions of human selectins E and P and the human immunoglobulin (IgG) heavy chain hinge, CH2 and CH3 regions, has been described in Cell 1991, 67, 35. These recombinant proteins contain the signal sequence, the lectin-like domain, the EGF (epidermal growth factor) repeat domain and six (E-selectin) and two (P-selectin) of the CR-like (complement regulatory) domains. […] Adhesion of labelled HL60 tumor cells was quantitatively measured in a cytofluoro-meter. The specific cell binding in the presence of inhibitors (I) was calculated compared with nonspecific binding to the CD4-IgG fusion protein.
The activity of compounds (I), (II) and (III) was measured in adhesion assays as the inhibition of the binding of promyelocytic leukemia HL60 cells (ATCC CRL 1964) to recombinant solid phase bound selectin-fusion proteins. […] Recombinant proteins were expressed as soluble proteins after DEAE/dextran facilitated plasmid DNA trans-fection into COS cells according to standard procedures. […] The amount of bound cells was quantitated in a cytofluorometer (CytoFluor 2300, Millipore, Bedford, U.S.A.). […]

[3] = concentration to block adhesion of 50% of HL60 cells compared with negative control; read-out: E-selectin IC50

T1 sequence (P16109 with tags, fused parts or gaps limits assumed): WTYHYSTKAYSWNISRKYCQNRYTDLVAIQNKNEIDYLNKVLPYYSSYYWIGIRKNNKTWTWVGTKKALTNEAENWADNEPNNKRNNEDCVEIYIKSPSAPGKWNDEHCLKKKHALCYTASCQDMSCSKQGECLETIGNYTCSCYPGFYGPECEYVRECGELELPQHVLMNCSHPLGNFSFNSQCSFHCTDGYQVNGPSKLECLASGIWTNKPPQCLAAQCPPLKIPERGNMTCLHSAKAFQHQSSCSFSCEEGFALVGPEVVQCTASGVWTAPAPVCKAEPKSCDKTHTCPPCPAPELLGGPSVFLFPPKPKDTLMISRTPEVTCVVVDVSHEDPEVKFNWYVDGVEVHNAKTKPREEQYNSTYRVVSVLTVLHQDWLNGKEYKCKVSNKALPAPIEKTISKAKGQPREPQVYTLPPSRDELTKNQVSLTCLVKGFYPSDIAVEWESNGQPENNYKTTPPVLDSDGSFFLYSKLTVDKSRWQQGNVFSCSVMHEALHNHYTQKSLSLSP

CC(=O)NC1C(O)CC(OC2C(O)C(CO)OC(OC3C(CO)OC(O)C(N)C3OC3OC(C)C(O)C(O)C3O)C2O)(C(=O)O)OC1C(O)C(O)CO (centres unmarked) [sLe^X (GlcNH2)]
enhanced inhibitory potency compared to sLe^X (fold) (E-selectin-Ig; cell-free ELISA, E-selectin-Ig competitive binding): 5 fold
pIC50 (E-selectin-Ig; cell-free system, read-out: IC50, E-selectin-Ig competitive binding): 4.11

CC1OC(OC2C(N)C(OCCCCCCN)OC(CO)C2OC2OC(CO)C(O)C(OC3(C(=O)O)CC(O)C(N)C(C(O)C(O)CO)O3)C2O)C(O)C(O)C1O [Compound I-1, 2-Amino-4-O-[3-O-[5-amino-3,5-dideoxy-D-glycero-α-D-galactononulopyranosyl]-β-D-galactopyranosyl]-1-[6-aminohexyl]-2-deoxy-3-O-[α-L-fucopyranosyl]-β-D-glycopyranose]
pIC50 [1]: 3.80
enhancement of binding affinity to P-selectin (factor) ([1]; fully deacetylated I-1 compared with II-1): 12.5
improvement of the E-selectin IC50 over II-1 ([2]; I-1 over reference compound II-1): significant improvement
pIC50 ([2]; read-out: E-selectin IC50; concentration to block adhesion of 50% of HL60 cells compared with negative control): 3.57

CC(=O)NC1C(O)CC(OC2C(O)C(CO)OC(OC3C(CO)OC(OCCCCCCN)C(NC(C)=O)C3OC3OC(C)C(O)C(O)C3O)C2O)(C(=O)O)OC1C(O)C(O)CO (centres unmarked) [II-1]
pIC50 [1]: 2.70
pIC50 [2, 3]: 3.00

CC(=O)NC1C(OCCCCCCN)OC(CO)C(OC2OC(CO)C(O)C(OC3(C(=O)O)CC(O)C(N)C(C(O)C(O)CO)O3)C2O)C1OC1OC(C)C(O)C(O)C1O (centres unmarked) [III-2]
pIC50 [1]: 3.00
inhibitory potency relative to II-1 (E- and P-selectins): only slightly improved
pIC50 [2, 3]: 3.05

CC(=O)NC1C(OCCCCCCN)OC(CO)C(OC2OC(CO)C(O)C(OC3(C(=O)O)CC(O)CC(C(O)C(O)CO)O3)C2O)C1OC1OC(C)C(O)C(O)C1O (centres unmarked) [III-1]
pIC50 [1]: 3.15
inhibitory potency relative to II-1 (E- and P-selectins): only slightly improved
pIC50 [2, 3]: 3.15

Reference: patent US6110897A, “Antiinflammatory cell adhesion inhibitors” (Glycorex AB, priority 1997, dated 2000)
